According to US6471974B1, “N-chlorosulfamate compositions having enhanced antimicrobial efficacy” (S.C. Johnson & Son, Inc., priority 1999, dated 2002):
“Also recorded” adds a separate entry of the source.

How the values were obtained:
[1] = test system: Staphylococcus aureus (ATCC 25923); assay: Sanitizer Test on glass slides, 5-minute contact time (parallels EPA Non-Food Contact Sanitizer Test DIS/TSS-10); type: cell-based; details: S. aureus, dopant to hypochlorite 0.20 to 1.0, 985 ppm TAC
Procedure: The test method used to evaluate antimicrobial efficacy was the Sanitizer Test described below.
(§1) Sanitizer Test: Glass slides measuring 18×36 mm were washed in a dishwasher, placed in glass petri dishes on 2 pieces of Whatman no. 2 filter paper and autoclaved. The slides were inoculated with a 10 μl sterile bacterial loop. The inoculum was spread over the upper surface of the slide being careful not to exceed the edges of the slide. The inoculum was a 24 hour culture having a concentration of approximately 10^9 organisms per ml. Following inoculation, the slides were incubated at 35° C. for 30±5 minutes to allow the slides to dry. The test product was then sprayed liberally onto the test surface (6 sprays/slide—approximately 6 ml of product) and the slides were allowed to stand for the desired contact time. The slides were removed from the petri dish using flamed forceps after exposure to the test product for the specified contact time and placed into test tubes containing 15.0 ml of the desired neutralizer for neutralization of the test product. Both 2× Letheen Broth (Tween 80 & Lecithin) and Dey/Engley neutralizing broths were separately utilized. Test bacteria was recovered by vortexing each test tube for 15 seconds. Serial dilutions were made using diluent. The pour plate technique using Tryptic Soy Agar was used to obtain plate counts. Parallel tests were run using a citrate-buffered (pH 5) solution of the dopant at a concentration equal to that in the doped test solutions or a 0.01% solution of Triton X-100 (isooctylphenoxy-polyethoxyethanol with 9-10 moles oxyethylene) in an identical manner to serve as controls. Blank parallel controls, using sterile, de-ionized water as the test product, were also evaluated.
A 5-minute contact time using-a glass slide test surface was employed.
(§2) The test products used are described below.

Staphylococcus aureus = assay: Sanitizer Test on glass slides, 1-minute contact time; type: cell-based; details: S. aureus, 500 and 200 ppm TAC
Procedure: as §1
However, a 1-minute contact time using a glass slide test surface was employed. Staphylococcus aureus was the test organism used. The test products that were used are described below.
Results are reported as a bacterial reduction (log reduction) of the formulation

[2] = test system: Klebsiella pneumoniae (ATCC 4352); assay: as above; type: cell-based; details: K. pneumoniae, 100 ppm TAC
Procedure: as §1, §2

[3] = Long-term stability at 40° C., NaOCl by iodometric titration and pH; type: physicochemical; details: up to Day 58
Procedure: Preparation of a stock 3.0% stabilized hypochlorite solution (0.75 to 1.0 mole ratio of sulfamate to NaOCl, pH 4.9 citric acid buffer): Anhydrous citric acid (210.0 g), sulfamic acid (88.0 g) and sodium hydroxide (93.0 g) were dissolved in deionized water (1897.54 g). The reaction mixture was allowed to cool to room temperature (approximately 1 hour).
All stabilized hypochlorite-containing test formulas were prepared by further dilution of the 3.0% stabilized NaOCl stock solution. Where applicable, the appropriate amount of each dopant was added to a known volume of diluted stock solution. Solutions containing varying mole ratios of sulfamate to NaOCl (1.0 to 1.0 and 1.5 to 1.0) were prepared by adding solid sodium sulfamate, as required, to 1.0 liter portions of the diluted stock solution. For all “doped” formulas, the ratio of NaOCl to dopant was 1.0:0.20.
Long-term stability samples were stored in a 40° C. incubator. After cooling to room temperature (23° C.) the concentration of NaOCl was determined via iodometric titration. The experimentally determined concentration of NaOCl is expressed in units of molarity (M). The recorded pH of each formula is shown in parentheses.

| Compound | antimicrobial enhancing effect of dopant added to base stabilized hypochlorite composition (in words) [1] | antimicrobial effectiveness of stabilized hypochlorite solutions containing the dopant (in words) (Staphylococcus aureus) | antimicrobial effectiveness of stabilized hypochlorite solutions containing the dopant (in words) [2] | effect of added dopant on long term stability of sulfamate-stabilized hypochlorite solutions (in words) [3] |
| --- | --- | --- | --- | --- |
| O=c1[nH]c(=O)[nH]c(=O)[nH]1 [cyanuric acid] | do not appear to have an antimicrobial enhancing effect |  |  |  |
| O=C1CCC(=O)N1 [succinimide] | significantly enhances the antimicrobial activity | have antimicrobial effectiveness | have antimicrobial effectiveness against K. pneumoniae |  |
| CC1(C)NC(=O)NC1=O [5,5-dimethylhydantoin] | significantly enhances the antimicrobial activity | lowest levels of enhanced antimicrobial efficacy | have antimicrobial effectiveness against K. pneumoniae | does not alter the long termn stability |
| Cc1ccc(S(N)(=O)=O)cc1 [toluenesulfonamide] | significantly enhances the antimicrobial activity; also recorded: antimicrobial enhancing ability |  |  |  |
| NS(=O)(=O)c1ccc(C(=O)O)cc1 [4-carboxybenzenesulfonamide] | significantly enhances the antimicrobial activity |  |  |  |
| NS(=O)(=O)c1ccccc1 [benzenesulfonamide] | significantly enhances the antimicrobial activity | most effective | have antimicrobial effectiveness against K. pneumoniae | does not alter the long termn stability |
| O=C1NC2NC(=O)NC2N1 (stereo not shown) [Glycoluril, glycoluril] | modest antimicrobial benefit |  |  |  |
| Nc1nc(N)nc(N)n1 [melamine] | do not appear to have an antimicrobial enhancing effect |  |  |  |
